Measured values as given in article doi:10.1101/2023.10.25.564053v1 (biorxiv, 2023).

How the values were obtained:
[1] = target: GsAK (Geobacillus stearothermophilus, UniProt P27142); experiment: microscale thermophoresis, amine-labelled protein; assay type: binding
[2] = target: BsAK (Bacillus subtilis, UniProt P16304); experiment: microscale thermophoresis, amine-labelled protein; assay type: binding
Chain of BsAK (P16304 whole entry): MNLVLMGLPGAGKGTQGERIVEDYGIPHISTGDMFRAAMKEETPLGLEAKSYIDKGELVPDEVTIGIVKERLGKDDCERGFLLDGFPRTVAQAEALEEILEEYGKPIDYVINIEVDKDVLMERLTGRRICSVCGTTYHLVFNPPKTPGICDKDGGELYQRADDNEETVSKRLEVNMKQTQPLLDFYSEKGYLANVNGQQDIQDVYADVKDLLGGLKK

Chain of GsAK (P27142 whole entry): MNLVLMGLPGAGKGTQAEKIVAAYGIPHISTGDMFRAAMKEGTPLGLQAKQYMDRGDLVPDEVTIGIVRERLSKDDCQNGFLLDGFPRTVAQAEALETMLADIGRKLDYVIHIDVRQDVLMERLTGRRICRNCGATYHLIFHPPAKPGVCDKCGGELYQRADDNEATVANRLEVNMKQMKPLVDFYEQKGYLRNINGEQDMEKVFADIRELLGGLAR

Kd [1]: 17 ± 5.7 nM
Kd [2]: 25.1 ± 1.1 nM
SMILES: Nc1ncnc2c1ncn2[C@@H]1O[C@H](COP(=O)(O)OP(=O)(O)OP(=O)(O)OP(=O)(O)OP(=O)(O)OC[C@H]2O[C@@H](n3cnc4c(N)ncnc43)[C@H](O)[C@@H]2O)[C@@H](O)[C@H]1O [Ap5A]
